From patent US20190008147A1, “COMPOSITION CONTAINING 1,2-DIBROMO-2,4-DICYANOBUTANE (DBDCB) AND AT LEAST ONE ORGANIC ACID AND/OR THE DERIVATIVES THEREOF” (priority 2015, published 2019)

Key:
Type in all cases: cell-based
[1] = system: Molds: Acremonium strictum, Aspergillus niger and Geotrichum candidum; assay: Microbiological load test, preservation of a dishwashing liquid: molds; details: M = molds, 1 week after pathogen addition, biocide added [wt %]: A DBDCB 0.05, B salicylic acid 0.02, C DBDCB 0.02 and salicylic acid 0.016
Text: (§1) The preserving effect of an inventive composition comprising DBDCB and Salix alba extract in a dishwashing liquid was investigated using a microbiological load test. The microbiological load test examines the susceptibility of water-based products to microbial attack and the effect of preservatives. To this end, the preservatives are incorporated in defined concentrations into the water-based systems. […] With knowledge of the microorganism populations prevalent in detergents of the type described here, the experiment employed a mixture of the following microorganism species for testing: Molds: Acremonium strictum, Aspergillus niger and Geotrichum candidum. […] The activity is deemed poor when, compared to the unpreserved sample, no reduction or only a minor reduction of the microbe level is observed (residual level of at least 10^5 bacteria/10^4 mold cells/yeast cells per g) (score of 0=poor). The following compositions were used in the experiments depicted in table 10: • A: DBDCB • B: […]

[2] = system: Bacteria: Escherichia coil, Pseudomonas aeruginosa, Staphylococcus aureus, Pseudomonas putida, Enterobacter gergoviae; assay: Microbiological load test, preservation of a dishwashing liquid: bacteria; details: B = bacteria, 1 week after pathogen addition, biocide added [wt %]: A DBDCB 0.05, B salicylic acid 0.02, C DBDCB 0.02 and salicylic acid 0.016
Text: as §1, with “Bacteria: Escherichia coil, Pseudomonas aeruginosa, Staphylococcus aureus, Pseudomonas putida, Enterobacter gergoviae” for “Molds: Acremonium strictum, Aspergillus niger and Geotrichum candidum.”

[3] = system: Yeasts: Candida albicans and Rhodotorula rubra; assay: Microbiological load test, preservation of a dishwashing liquid: yeasts; details: Y = yeasts, 1 week after pathogen addition, biocide added [wt %]: A DBDCB 0.05, B salicylic acid 0.02, C DBDCB 0.02 and salicylic acid 0.016
Text: as §1, with “Yeasts: Candida albicans” for “Molds: Acremonium strictum, Aspergillus niger”, “Rhodotorula rubra.” for “Geotrichum candidum.”

Geotrichum candidum = assay: Minimum inhibitory concentration and synergistic index (Kull); details: Table 3
Text: (§2) [formula] • where: • Qa=the amount of component A in the active substance mixture which achieves the desired effect, i.e. no microbial growth, • QA=the amount of component A which, when used on its own, suppresses the growth of the microorganisms, • Qb=the amount of component B in the active substance mixture which achieves the desired effect, i.e. no microbial growth, • and • QB=the amount of component B which, when used on its own, suppresses the growth of the microorganisms.
(§3) A synergistic index obtained according to the above formula of SI<1 indicates a synergistic effect for the active substance mixture.
(§4) Using various test pathogens, the minimum inhibitory concentration was determined and, on the basis thereof with the aid of the formula by F. C. Kull et al., the synergistic effects of the listed compositions according to the invention were calculated.

Aspergillus brasiliensis = assay: as above; details: Table 9
Text: as §2, §3, §4

Pseudomonas aeruginosa = assay: as above; details: for QA: amount of DBDCB used on its own that suppresses growth
Text: as §2, §3, §4

Bacillus subtilis = assay: as above; details: Table 8
Text: as §2, §3, §4

Alternaria alternata = assay: as above; details: for QA: amount of DBDCB used on its own that suppresses growth
Text: as §2, §3, §4

Staphylococcus aureus = assay: as above; details: Table 1
Text: as §2, §3, §4

[4] = amount of DBDCB used on its own that suppresses growth
[5] = amount of benzoic acid used on its own that suppresses growth
[6] = amount of citric acid used on its own that suppresses growth

N#CCCC(Br)(C#N)CBr (stereo not drawn) [DBDCB, 1,2-dibromo-2,4-dicyanobutane] was tested, and the “Activity of the biocides in a dishwashing liquid, molds, Week 1” value ([1]; week 1) was 3 (3 = very good activity), the “Activity of the biocides in a dishwashing liquid, molds, Week 2” value ([1]; week 2) was 3 (3 = very good activity) and the “Activity of the biocides in a dishwashing liquid, molds, Week 3” value ([1]; week 3) was 0 (0 = poor activity). For the same compound, the “Activity of the biocides in a dishwashing liquid, molds, Week 4” value ([1]; week 4) was 0 (0 = poor activity), the “Activity of the biocides in a dishwashing liquid, molds, Week 5” value ([1]; week 5) was 0 (0 = poor activity) and the “Activity of the biocides in a dishwashing liquid, molds, Week 6” value ([1]; week 6) was 0 (0 = poor activity). The “Activity of the biocides in a dishwashing liquid, bacteria, Week 1” value ([2]; week 1) was 1 (1 = fair activity), the “Activity of the biocides in a dishwashing liquid, bacteria, Week 2” value ([2]; week 2) was 0 (0 = poor activity) and the “Activity of the biocides in a dishwashing liquid, bacteria, Week 3” value ([2]; week 3) was 0 (0 = poor activity). The “Activity of the biocides in a dishwashing liquid, bacteria, Week 4” value ([2]; week 4) was 0 (0 = poor activity), the “Activity of the biocides in a dishwashing liquid, bacteria, Week 5” value ([2]; week 5) was 0 (0 = poor activity) and the “Activity of the biocides in a dishwashing liquid, bacteria, Week 6” value ([2]; week 6) was 0 (0 = poor activity). The “Activity of the biocides in a dishwashing liquid, yeasts, Week 1” value ([3]; week 1) was 3 (3 = very good activity), the “Activity of the biocides in a dishwashing liquid, yeasts, Week 2” value ([3]; week 2) was 3 (3 = very good activity) and the “Activity of the biocides in a dishwashing liquid, yeasts, Week 3” value ([3]; week 3) was 0 (0 = poor activity). The “Activity of the biocides in a dishwashing liquid, yeasts, Week 4” value ([3]; week 4) was 0 (0 = poor activity), the “Activity of the biocides in a dishwashing liquid, yeasts, Week 5” value ([3]; week 5) was 0 (0 = poor activity) and the “Activity of the biocides in a dishwashing liquid, yeasts, Week 6” value ([3]; week 6) was 0 (0 = poor activity). The QA (Geotrichum candidum; [4]) was 100 ppm, the QA (Aspergillus brasiliensis; [4]) was 250 ppm and the QA (Pseudomonas aeruginosa; Table 4) was 500 ppm. For the same compound, the QA (Pseudomonas aeruginosa; Table 6) was 250 ppm, the QA (Bacillus subtilis; [4]) was 25 ppm and the QA (Alternaria alternata; Table 2) was 25 ppm. It also gave a QA (Alternaria alternata; Table 5) of 25 ppm, a QA (Alternaria alternata; Table 7) of 25 ppm and a QA (Staphylococcus aureus; [4]) of 50 ppm.
O=C(O)c1ccccc1 [benzoic acid] was tested, and the QB (Aspergillus brasiliensis; [5]) was 1000 ppm and the QB (Bacillus subtilis; [5]) was 3000 ppm.
With O=C(O)CC(O)(CC(=O)O)C(=O)O [citric acid] the QB (Geotrichum candidum; [6]) was 3001 ppm, the QB (Alternaria alternata; amount of citric acid used on its own that suppresses growth, Table 2) was 3001 ppm and the QB (Staphylococcus aureus; [6]) was 3001 ppm.
With O=C(O)c1ccccc1O [salicylic acid] the QB (Pseudomonas aeruginosa; amount of salicylic acid used on its own that suppresses growth, Table 6) was 3001 ppm and the QB (Alternaria alternata; amount of salicylic acid used on its own that suppresses growth, Table 7) was 500 ppm.
CC(O)C(=O)O (stereo not drawn) [lactic acid] showed a QB (Pseudomonas aeruginosa; amount of lactic acid used on its own that suppresses growth, Table 4) of 3001 ppm and a QB (Alternaria alternata; amount of lactic acid used on its own that suppresses growth, Table 5) of 3001 ppm.
